System: yeast genes (level of expressed mRNA)
Test: DNA chip analysis of expressed mRNA of yeast genes after 2 h culture with a toxic chemical substance
Format: cell-based, Saccharomyces cerevisiae S288C
In short: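 Values are treated-to-control fluorescence ratios from a whole-yeast-genome DNA chip (65° C, over 12 h hybridization) using Cy3/Cy5-labelled cDNA from mRNA. Log-phase S288C cells in YPD at 25° C were exposed 2 h to a toxicant at sublethal, growth-inhibiting concentration.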

Substance: HgCl2 [(3)]
- The level of expressed mRNA in the presence of chemical substance/ (yeast gene YKL086W, ratio to control without chemical): 2.4
- The level of expressed mRNA in the presence of chemical substance/The level of expressed mRNA in the absence of chemical substance (yeast gene YKL096W): 8.1
- The level of expressed mRNA in the presence of chemical substance/ (yeast gene YKL151C, ratio to control without chemical substance, 2 h culture): 1.7
- The level of expressed mRNA in the presence of chemical substance/ (yeast gene YKL153W, ratio to control without chemical substance, 2 h culture): 2.0
- The level of expressed mRNA in the presence of chemical substance/The level of expressed mRNA in the absence of chemical substance (yeast gene YKL165C): 1.1
- The level of expressed mRNA in the presence of chemical substance/The level of expressed mRNA in the absence of chemical substance (yeast gene YKL193C): 1.1
- The level of expressed mRNA in the presence of chemical substance/ (yeast gene YKL195W, ratio to control without chemical substance, 2 h culture): 0.4
- The level of expressed mRNA in the presence of chemical substance/in the absence of chemical substance (yeast gene YKR009C): 1.5
- The level of expressed mRNA in the presence of chemical substance/ (yeast gene YKR091W, ratio to control without chemical): 0.9
- The level of expressed mRNA in the presence of chemical substance/ (yeast gene YLR054C, ratio to control without chemical substance, 2 h culture): 0.4
- The level of expressed mRNA in the presence of chemical substance/The level of expressed mRNA in the absence of chemical substance (yeast gene YLR120C): 2.4
- The level of expressed mRNA in the presence of chemical substance/The level of expressed mRNA in the absence of chemical substance (yeast gene YLR136C): 0.6
- The level of expressed mRNA in the presence of chemical substance/ (yeast gene YLR149C, ratio to control without chemical substance, 2 h culture): 3.4
- The level of expressed mRNA in the presence of chemical substance/ (yeast gene YLR152C, ratio to control without chemical substance, 2 h culture): 1.1
- The level of expressed mRNA in the presence of chemical substance/The level of expressed mRNA in the absence of chemical substance (yeast gene YLR178C): 8.8
- The level of expressed mRNA in the presence of chemical substance/ (yeast gene YLR194C, ratio to control without chemical): 1.3
- The level of expressed mRNA in the presence of chemical substance/The level of expressed mRNA in the absence of chemical substance (yeast gene YLR250W): 1.0
- The level of expressed mRNA in the presence of chemical substance/ (yeast gene YLR324W, ratio to control without chemical substance, 2 h culture): 0.9
- The level of expressed mRNA in the presence of chemical substance/The level of expressed mRNA in the absence of chemical substance (yeast gene YLR327C): 14.4
- The level of expressed mRNA in the presence of chemical substance/ (yeast gene YLR350W, ratio to control without chemical substance, 2 h culture): 3.2
- The level of expressed mRNA in the presence of chemical substance/in the absence of chemical substance (yeast gene YLR351C): 1.3
- The level of expressed mRNA in the presence of chemical substance/The level of expressed mRNA in the absence of chemical substance (yeast gene YLR356W): 4.9
- The level of expressed mRNA in the presence of chemical substance/The level of expressed mRNA in the absence of chemical substance (yeast gene YLR362W): 1.0
- The level of expressed mRNA in the presence of chemical substance/in the absence of chemical substance (yeast gene YLR375W): 0.9
- The level of expressed mRNA in the presence of chemical substance/ (yeast gene YLR387C, ratio to control without chemical substance, 2 h culture): 0.8
- The level of expressed mRNA in the presence of chemical substance/The level of expressed mRNA in the absence of chemical substance (yeast gene YLR391W): 2.9
- The level of expressed mRNA in the presence of chemical substance/The level of expressed mRNA in the absence of chemical substance (yeast gene YLR429W): 0.6
- The level of expressed mRNA in the presence of chemical substance/ (yeast gene YLR460C, ratio to control without chemical substance, 2 h culture): 2.0
- The level of expressed mRNA in the presence of chemical substance/ (yeast gene YML117W, ratio to control without chemical substance, 2 h culture): 0.9
- The level of expressed mRNA in the presence of chemical substance/The level of expressed mRNA in the absence of chemical substance (yeast gene YMR004W): 1.3
- The level of expressed mRNA in the presence of chemical substance/ (yeast gene YMR009W, ratio to control without chemical substance, 2 h culture): 0.5
- The level of expressed mRNA in the presence of chemical substance/ (yeast gene YMR067C, ratio to control without chemical substance, 2 h culture): 1.1
- The level of expressed mRNA in the presence of chemical substance/ (yeast gene YMR090W, ratio to control without chemical substance, 2 h culture): 2.3
- The level of expressed mRNA in the presence of chemical substance/The level of expressed mRNA in the absence of chemical substance (yeast gene YMR094W): 1.3
- The level of expressed mRNA in the presence of chemical substance/ (yeast gene YMR095C, ratio to control without chemical): 1.6
- The level of expressed mRNA in the presence of chemical substance/ (yeast gene YMR097C, ratio to control without chemical substance, 2 h culture): 0.7
- The level of expressed mRNA in the presence of chemical substance/ (yeast gene YMR102C, ratio to control without chemical substance, 2 h culture): 1.1
- The level of expressed mRNA in the presence of chemical substance/The level of expressed mRNA in the absence of chemical substance (yeast gene YMR104C): 2.2
- The level of expressed mRNA in the presence of chemical substance/ (yeast gene YMR107W, ratio to control without chemical substance, 2 h culture): 1.7
- The level of expressed mRNA in the presence of chemical substance/ (yeast gene YMR180C, ratio to control without chemical substance, 2 h culture): 1.0
- The level of expressed mRNA in the presence of chemical substance/ (yeast gene YMR184W, ratio to control without chemical substance, 2 h culture): 1.0
- The level of expressed mRNA in the presence of chemical substance/ (yeast gene YMR191W, ratio to control without chemical substance, 2 h culture): 1.9
- The level of expressed mRNA in the presence of chemical substance/The level of expressed mRNA in the absence of chemical substance (yeast gene YMR219W): 1.0
- The level of expressed mRNA in the presence of chemical substance/The level of expressed mRNA in the absence of chemical substance (yeast gene YMR226C): 1.4
- The level of expressed mRNA in the presence of chemical substance/in the absence of chemical substance (yeast gene YMR267W): 0.7
- The level of expressed mRNA in the presence of chemical substance/The level of expressed mRNA in the absence of chemical substance (yeast gene YMR275C): 1.2
- The level of expressed mRNA in the presence of chemical substance/The level of expressed mRNA in the absence of chemical substance (yeast gene YMR276W): 1.5
- The level of expressed mRNA in the presence of chemical substance/in the absence of chemical substance (yeast gene YMR278W): 1.4
- The level of expressed mRNA in the presence of chemical substance/in the absence of chemical substance (yeast gene YMR293C): 1.6
- The level of expressed mRNA in the presence of chemical substance/ (yeast gene YMR295C, ratio to control without chemical substance, 2 h culture): 1.2
- The level of expressed mRNA in the presence of chemical substance/The level of expressed mRNA in the absence of chemical substance (yeast gene YMR314W): 0.9
- The level of expressed mRNA in the presence of chemical substance/ (yeast gene YMR316W, ratio to control without chemical substance, 2 h culture): 1.1
- The level of expressed mRNA in the presence of chemical substance/The level of expressed mRNA in the absence of chemical substance (yeast gene YNL006W): 1.3
- The level of expressed mRNA in the presence of chemical substance/The level of expressed mRNA in the absence of chemical substance (yeast gene YNL007C): 5.1
- The level of expressed mRNA in the presence of chemical substance/ (yeast gene YNL044W, ratio to control without chemical substance, 2 h culture): 2.3

Source: US20050112573A1, “Method of detecting toxic substance” (priority 2001, published 2005)
